Results on 10 molecules are retold here after ChEMBL document CHEMBL4602679, “Polyesterified Sesquiterpenoids from the Seeds of Celastrus paniculatus as Lifespan-Extending Agents for the Nematode Caenorhabditis elegans” (2020).

The subject of test [1] is Caenorhabditis elegans. Kind of test: Induction of lifespan expansion in late L4 larval stage of Caenorhabditis elegans Bristol N2 assessed as survival time at 50 uM (reference value: 15.19 =/- 0.53 day). Format: functional.
Test [2] has as its system Caenorhabditis elegans. The test can be described thus: Induction of lifespan expansion in late L4 larval stage of Caenorhabditis elegans Bristol N2 assessed as increase in survival time at 50 uM relative to control. In kind it is functional.

For `CC(=O)OC[C@@]12[C@@H](OC(C)=O)CC[C@](C)(O)[C@]13OC(C)(C)[C@H]([C@@H](OC(C)=O)[C@@H]2OC(=O)c1ccoc1)[C@H]3OC(C)=O`, in the test with Caenorhabditis elegans [1], the Survival worked out at 15.29 days.

For `CC(=O)OC[C@@]12[C@@H](OC(C)=O)CC[C@](C)(O)[C@]13OC(C)(C)[C@H]([C@H](OC(=O)c1ccoc1)[C@@H]2OC(=O)c1ccoc1)[C@H]3OC(C)=O`, in the test on Caenorhabditis elegans [1], the Survival was 17.39 days. Also, in the test on Caenorhabditis elegans [2], the survival at 50 µM came out at 14%. Turning to `CC(=O)O[C@H]1CC[C@](C)(O)[C@]23OC(C)(C)[C@H]([C@H](OC(=O)c4ccoc4)[C@H](OC(=O)c4ccoc4)[C@]12CO)[C@H]3OC(C)=O`, the Survival with Caenorhabditis elegans [1] came out at 18 days. In the test with Caenorhabditis elegans [2], the survival at 50 µM worked out at 18%.

For the molecule `CC(=O)OC[C@@]12[C@@H](OC(C)=O)CC[C@@H](C)[C@@]13C[C@@H]([C@H](OC(C)=O)[C@H]2OC(=O)c1ccoc1)C(C)(C)O3`, the Survival in the test with Caenorhabditis elegans [1] turned out to be 17 days. Besides, the survival at 50 µM in the test with Caenorhabditis elegans [2] came to 12%. Consider `CC(=O)OC[C@]12[C@@H](OC(=O)c3ccoc3)[C@@H](OC(C)=O)[C@@H]3C[C@]1(OC3(C)C)[C@H](C)C[C@@H](OC(C)=O)[C@@H]2OC(C)=O`, for which the Survival in the test with Caenorhabditis elegans [1] was determined as 15.46 days. For the molecule `CC(=O)OC[C@@]12[C@@H](OC(C)=O)CC[C@](C)(O)[C@]13OC(C)(C)[C@H]([C@H](OC(C)=O)[C@H]2OC(=O)c1ccoc1)[C@H]3OC(C)=O`, the Survival in the test on Caenorhabditis elegans [1] worked out at 17.56 days. Besides, the survival at 50 µM with Caenorhabditis elegans [2] came out at 16%. Consider `CC(=O)OC[C@@]12[C@@H](OC(C)=O)CC[C@](C)(O)[C@]13OC(C)(C)[C@H]([C@H](OC(C)=O)[C@@H]2OC(=O)c1ccoc1)[C@H]3OC(C)=O`, for which the Survival in the test on Caenorhabditis elegans [1] worked out at 17.67 days. Also, the survival at 50 µM with Caenorhabditis elegans [2] came out at 16%. For `CC(=O)OC[C@@]12[C@@H](OC(C)=O)CC[C@@H](C)[C@]13OC(C)(C)[C@H]([C@H](OC(C)=O)[C@H]2OC(=O)c1ccccc1)[C@H]3OC(C)=O`, the Survival with Caenorhabditis elegans [1] is 17.77 days. For the same molecule, the survival at 50 µM in the test with Caenorhabditis elegans [2] stood at 17%. For `CC(=O)OC[C@@]12[C@@H](OC(C)=O)CC[C@@H](C)[C@]13OC(C)(C)[C@H]([C@@H](OC(C)=O)[C@@H]2OC(=O)c1ccoc1)[C@H]3OC(C)=O`, in that order: 16.83 days and 11%. As for `CC(=O)OC[C@@]12[C@@H](OC(C)=O)CC[C@@H](C)[C@@]13C[C@@H]([C@H](OC(C)=O)[C@@H]2OC(=O)c1ccoc1)C(C)(C)O3`, the Survival in the test with Caenorhabditis elegans [1] was determined as 16.38 days.
